Test results taken from PubChem BioAssay AID328 (DTP/NCI, 2004).
“And” between values parts separate entries of the source, which are not always exact repeats. Identical values can stand only once. Inconclusive results and toxic doses are left out.

Test system: BDF1 mice, P388 leukemia ip, median survival T/C
Experiment: NCI In Vivo Anticancer Drug Screen. Data for tumor model P388 Leukemia (intraperitoneal) in B6D2F1 (BDF1) mice
Conditions: endpoint: median survival time, higher = longer survival
How it was run: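 Survival ratio, drug arm over vehicle arm, in mice with a transplanted tumour.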

[1] = dose: 100.0 mg/kg/injection, schedule: Q04DX003 (ip), vehicle: saline with Tween-80
[2] = dose: 200.0 mg/kg/injection, schedule: Q04DX003 (ip), vehicle: saline with Tween-80
[3] = dose: 400.0 mg/kg/injection, schedule: Q04DX003 (ip), vehicle: saline with Tween-80
[4] = dose: 100.0 mg/kg/injection, schedule: Q01DX009 (ip), vehicle: saline with Tween-80
[5] = dose: 200.0 mg/kg/injection, schedule: Q01DX009 (ip), vehicle: saline with Tween-80
[6] = dose: 400.0 mg/kg/injection, schedule: Q01DX009 (ip), vehicle: saline with Tween-80
[7] = dose: 25.0 mg/kg/injection, schedule: Q01DX009 (ip), vehicle: saline with Tween-80
[8] = dose: 50.0 mg/kg/injection, schedule: Q01DX009 (ip), vehicle: saline with Tween-80
[9] = dose: 50.0 mg/kg/injection, schedule: Q04DX003 (ip), vehicle: saline with Tween-80
[10] = dose: 200.0 mg/kg/injection, schedule: Q04DX003 (ip), vehicle: saline
[11] = dose: 400.0 mg/kg/injection, schedule: Q04DX003 (ip), vehicle: saline

Clc1ccc(/C=N\N=C\c2ccc(Cl)c(Cl)c2)cc1Cl
T/C [1]: 105 % of control | T/C [2]: 111 % of control | T/C [3]: 111 % of control

CC(C)c1cc(C(C)C)nc(NNc2nc(C(C)C)cc(C(C)C)n2)n1
T/C [4]: 90 % of control | T/C [5]: 90 % of control | T/C [6]: 100 % of control

COc1ccc(Cc2c3ccccc3cc[n+]2C)cc1Oc1ccc(Cc2c3ccccc3cc[n+]2C)cc1
T/C (dose: 0.78 mg/kg/injection, schedule: Q01DX009 (ip), vehicle: saline): 100 % of control | T/C (dose: 1.56 mg/kg/injection, schedule: Q01DX009 (ip), vehicle: saline): 101 % of control

CC(Nc1ccccc1)(C(N)=O)c1ccccc1 (stereo unspecified)
T/C (dose: 25.0 mg/kg/injection, schedule: Q01DX001 (ip), vehicle: saline with Tween-80): 90 % of control | T/C (dose: 50.0 mg/kg/injection, schedule: Q01DX001 (ip), vehicle: saline with Tween-80): 104 % of control | T/C (dose: 100.0 mg/kg/injection, schedule: Q01DX001 (ip), vehicle: saline with Tween-80): 95 % of control | T/C (dose: 200.0 mg/kg/injection, schedule: Q01DX001 (ip), vehicle: saline with Tween-80): 90 % of control | T/C (dose: 400.0 mg/kg/injection, schedule: Q01DX001 (ip), vehicle: saline with Tween-80): 95 % of control

C1CN1P1(N2CC2)=NP(N2CC2)(N2CC2)=NP(N2CC2)(N2CC2)=NP(N2CC2)(N2CC2)=N1
T/C (dose: 0.27 mg/kg/injection, schedule: Q01DX009 (ip), vehicle: saline): 116 % of control | T/C (dose: 0.4 mg/kg/injection, schedule: Q01DX009 (ip), vehicle: saline): 112 % of control | T/C (dose: 0.62 mg/kg/injection, schedule: Q01DX009 (ip), vehicle: saline): 172 % of control | T/C (dose: 0.63 mg/kg/injection, schedule: Q04DX003 (ip), vehicle: saline): 113 % of control | T/C (dose: 1.25 mg/kg/injection, schedule: Q01DX009 (ip), vehicle: saline): 159 % of control | T/C (dose: 1.9 mg/kg/injection, schedule: Q04DX003 (ip), vehicle: saline): 154 % of control | T/C (dose: 2.5 mg/kg/injection, schedule: Q01DX009 (ip), vehicle: saline): 200 % of control | T/C (dose: 2.5 mg/kg/injection, schedule: Q04DX003 (ip), vehicle: saline): 166 % of control | T/C (dose: 2.9 mg/kg/injection, schedule: Q04DX003 (ip), vehicle: saline): 168 % of control | T/C (dose: 4.4 mg/kg/injection, schedule: Q04DX003 (ip), vehicle: saline): 186 % of control | T/C (dose: 5.0 mg/kg/injection, schedule: Q04DX003 (ip), vehicle: saline): 219 % of control | T/C (dose: 6.6 mg/kg/injection, schedule: Q01DX009 (ip), vehicle: saline): 240 % of control | T/C (dose: 10.0 mg/kg/injection, schedule: Q04DX003 (ip), vehicle: saline): 225 % of control and 223 % of control | T/C (dose: 13.2 mg/kg/injection, schedule: Q04DX003 (ip), vehicle: saline): 100 % of control | T/C (dose: 13.3 mg/kg/injection, schedule: Q04DX003 (ip), vehicle: saline): 223 % of control | T/C (dose: 15.0 mg/kg/injection, schedule: Q01DX009 (ip), vehicle: saline): 155 % of control | T/C (dose: 30.0 mg/kg/injection, schedule: Q04DX003 (ip), vehicle: saline): 285 % of control | T/C (dose: 40.0 mg/kg/injection, schedule: Q04DX003 (ip), vehicle: saline): 105 % of control

Cc1ccc(C(=O)O)cc1S(=O)(=O)F
T/C [7]: 114 % of control | T/C [8]: 104 % of control | T/C [9]: 101 % of control | T/C [4]: 98 % of control | T/C [1]: 102 % of control | T/C [5]: 104 % of control | T/C [2]: 101 % of control | T/C (dose: 300.0 mg/kg/injection, schedule: Q01DX009 (ip), vehicle: saline with Tween-80): 110 % of control | T/C [6]: 123 % of control | T/C [3]: 101 % of control

CC(C)CNS(=O)(=O)c1ncnc2nc[nH]c12
T/C [8]: 109 % of control | T/C [4]: 109 % of control

COc1cc([N+](=O)[O-])c(C)cc1Nc1ccc(OC)c(OC)c1
T/C [8]: 100 % of control | T/C [4]: 103 % of control and 106 % of control | T/C [1]: 100 % of control | T/C [5]: 87 % of control and 94 % of control | T/C [2]: 100 % of control | T/C [6]: 97 % of control and 100 % of control | T/C [3]: 90 % of control

COc1ccc(OC)c(NC(=O)Nc2c(C)n(C)n(-c3ccccc3)c2=O)c1
T/C (dose: 100.0 mg/kg/injection, schedule: Q01DX009 (ip), vehicle: Klucel (hydroxypropylcellulose) (HPC)): 105 % of control | T/C (dose: 200.0 mg/kg/injection, schedule: Q01DX009 (ip), vehicle: Klucel (hydroxypropylcellulose) (HPC)): 90 % of control | T/C (dose: 400.0 mg/kg/injection, schedule: Q01DX009 (ip), vehicle: Klucel (hydroxypropylcellulose) (HPC)): 105 % of control

O=C(c1ccc[nH]1)C(Cl)(Cl)Cl
T/C [8]: 108 % of control | T/C [4]: 117 % of control | T/C [5]: 115 % of control

O=C(c1ccccc1)C1CCCCC1
T/C (dose: 12.0 mg/kg/injection, schedule: Q04DX003 (ip), vehicle: Klucel (hydroxypropylcellulose) (HPC)): 104 % of control | T/C (dose: 25.0 mg/kg/injection, schedule: Q04DX003 (ip), vehicle: Klucel (hydroxypropylcellulose) (HPC)): 109 % of control | T/C (dose: 50.0 mg/kg/injection, schedule: Q04DX003 (ip), vehicle: Klucel (hydroxypropylcellulose) (HPC)): 100 % of control | T/C [10]: 107 % of control | T/C [11]: 107 % of control

O=C1NC(=O)C2(CCCCCC2)N1
T/C [8]: 100 % of control | T/C [9]: 112 % of control | T/C [4]: 112 % of control | T/C (dose: 100.0 mg/kg/injection, schedule: Q04DX003 (ip), vehicle: saline sonified): 95 % of control | T/C [1]: 104 % of control | T/C [5]: 108 % of control | T/C (dose: 200.0 mg/kg/injection, schedule: Q04DX003 (ip), vehicle: saline sonified): 95 % of control | T/C [2]: 100 % of control | T/C (dose: 400.0 mg/kg/injection, schedule: Q04DX003 (ip), vehicle: saline sonified): 104 % of control

c1ccc(-c2oc3cc4c(cc3c2-c2ccc(OCCN3CCCC3)cc2)CCC4)cc1
T/C [1]: 95 % of control

CCC(C)Sc1nc(N)nc2c1ncn2C1OC(CO)C(O)C1O (stereo unspecified)
T/C [1]: 91 % of control and 109 % of control | T/C [2]: 108 % of control and 118 % of control

CC(=O)[C@H]1[C@H](O)C[C@H]2[C@@H]3CCC4=CC(=O)CC[C@]4(C)[C@@]3(F)[C@@H](O)C[C@@]21C
T/C (dose: 100.0 mg/kg/injection, schedule: Q04DX003 (ip), vehicle: saline): 100 % of control | T/C [10]: 113 % of control | T/C [11]: 113 % of control

CCCNC(=O)Nc1ccc(C)c(Cl)c1
T/C [1]: 104 % of control | T/C [2]: 100 % of control | T/C [3]: 95 % of control

CCCC1CC[N-]CC1.CCCC1CC[N-]CC1.[Cl][Pt+2]([Cl])([Cl])[Cl]
T/C (dose: 25.0 mg/kg/injection, schedule: Q04DX003 (ip), vehicle: saline): 122 % of control | T/C (dose: 33.0 mg/kg/injection, schedule: Q04DX003 (ip), vehicle: saline with Tween-80): 150 % of control | T/C (dose: 37.5 mg/kg/injection, schedule: Q04DX003 (ip), vehicle: saline with Tween-80): 118 % of control | T/C [8]: 110 % of control | T/C [9]: 160 % of control

C1O[C@@H]1[C@@H]1CO1
T/C (dose: 100.0 mg/kg/injection, schedule: Q01DX006 (ip), vehicle: water): 100 % of control | T/C (dose: 100.0 mg/kg/injection, schedule: Q01DX010 (ip), vehicle: water): 104 % of control and 120 % of control | T/C (dose: 200.0 mg/kg/injection, schedule: Q01DX006 (ip), vehicle: water): 100 % of control | T/C (dose: 200.0 mg/kg/injection, schedule: Q01DX010 (ip), vehicle: water): 150 % of control | T/C (dose: 225.0 mg/kg/injection, schedule: Q01DX010 (ip), vehicle: water): 113 % of control | T/C (dose: 300.0 mg/kg/injection, schedule: Q01DX006 (ip), vehicle: water): 100 % of control | T/C (dose: 300.0 mg/kg/injection, schedule: Q01DX010 (ip), vehicle: water): 100 % of control | T/C (dose: 335.0 mg/kg/injection, schedule: Q01DX010 (ip), vehicle: water): 90 % of control | T/C (dose: 400.0 mg/kg/injection, schedule: Q01DX006 (ip), vehicle: water): 100 % of control | T/C (dose: 400.0 mg/kg/injection, schedule: Q01DX010 (ip), vehicle: water): 86 % of control and 95 % of control | T/C (dose: 600.0 mg/kg/injection, schedule: Q01DX010 (ip), vehicle: water): 90 % of control

O=[N+]([O-])[O-].OCCNCCNCC[OH2+].OCCNCCNCC[OH2+].[Cu+2]
T/C (dose: 6.25 mg/kg/injection, schedule: Q01DX009 (ip), vehicle: saline): 97 % of control | T/C (dose: 12.5 mg/kg/injection, schedule: Q01DX009 (ip), vehicle: saline): 100 % of control | T/C (dose: 25.0 mg/kg/injection, schedule: Q01DX009 (ip), vehicle: saline): 88 % of control

C=C(C)C(=O)NCC(=O)NC(Cc1ccccc1)C(=O)Oc1ccc([N+](=O)[O-])cc1 (stereo unspecified)
T/C [7]: 97 % of control | T/C [8]: 101 % of control | T/C [4]: 99 % of control
